This passage reports logP results from the SangsterLogP compilation.

SMILES strings stand for the structures.

Usually logP stands for a log measure of how a compound divides between an organic and an aqueous phase. `COc1ccc2c(c1)C(NC(=O)N(CCCl)N=O)c1ccccc1O2` (stereo unspecified) yielded a logP of 4.48.
The value for `Cc1ccc2c(c1)C(NC(=O)N(CCCl)N=O)c1ccccc1S2` (stereo unspecified) was 5.01; that for `O=NN(CCCl)C(=O)NC1c2ccccc2Oc2ccccc21` was 4.17.
On to `Cc1ccc2c(c1)C(NC(=O)N(CCCl)N=O)c1ccccc1O2` (stereo unspecified), for which the logP amounted to 4.65.
In the case of `Cc1cccc2c1Oc1ccccc1C2NC(=O)CCN(C)C` (stereo unspecified) it was 2.61.
Molecule `Cc1cccc2c1Oc1ccccc1C2NC(=O)N(CCCl)N=O` (stereo unspecified) gave a logP of 4.77.
In the case of `Cc1cccc2c1Oc1ncccc1C2NC(=O)CN(C)C` (stereo unspecified) it was 2.19; in that of `O=NN(CCCl)C(=O)NCC1c2ccccc2Oc2ccccc21`, 4.13.
The value for `O=NN(CCCl)C(=O)NC1c2ccccc2Sc2ccccc21` was 4.59; that for `CCN(CC)CC(=O)NC1c2ccccc2Sc2c(C)cccc21` (stereo unspecified) was 4.24.
In the case of `Cc1cc(C)c2c(c1)C(NC(=O)N(CCCl)N=O)c1ccccc1O2` (stereo unspecified) it was 5.19.
As to `COc1cccc2c1Oc1ccccc1C2NC(=O)N(CCCl)N=O` (stereo unspecified), the logP worked out at 3.68.
Turning to `CCOc1ccc2c(c1)C(NC(=O)N(CCCl)N=O)c1ccccc1O2` (stereo unspecified), the logP is 4.86.
Take `Cc1cccc2c1Sc1ccccc1C2NC(=O)N(CCCl)N=O` (stereo unspecified): the logP was determined as 5.03.
The molecule `CCN(CC)CC(=O)NC1c2ccccc2Oc2ccccc21` had a logP of 3.49.
In the case of `O=NN(CCCl)C(=O)NCCSC1c2ccccc2Oc2ccccc21` it was 5.
